Structures can show the parent of a compound that is named as a salt.
Columns and labels:
[1] = test system: Patient six; experiment: Protocol and results with patient six, Example 12 (thalamic pain syndrome, ethanol use); details: for outcome of earlier trials for thalamic pain syndrome: before the protocol; for alcohol withdrawal phenomena: combination Adipex-P 37.5 one-half b.i.d. + fenfluramine 10 mg + Celexa 10 mg + Nutrimed three times daily + Librium 30 mg (three days) + atenolol 25 mg; for body weight change: approximately five weeks into therapy, combination Adipex-P + fenfluramine + Celexa + Nutrimed; for energy level / pain as described by patient: combination Adipex-P 37.5 one-half b.i.d. + fenfluramine 10 mg + Celexa 10 mg + Nutrimed three times daily (+ atenolol 25 mg)
Description: Person with sudden onset of numbness right side of body in Guyana 1973. […] Diagnosis was thalamic pain syndrome.
Other medical problems: borderline hypertension, obesity secondary to ETOH, hemorrhoids, and remote short-lived cigarette smoking.
At the time therapy started the patient was taking either hydrocodone/APAPE 7.5/500 as needed or Percocet. […] Therapy was started with Adipex-P 37.5 one-half p.o. bid., fenfluramine 10 mg p.o. q.a.m., Celexa 10 mg p.o. q.a.m., Nutrimed three times daily plus dinner for nutritional support (Nutrimed is a high protein, low carbohydrate semi-starvation fast), Librium 30 mg q.d. because of the discontinuation of alcohol, atenolol 25 mg q.a.m. Treatment started July 1999.
By mid-August, approximately five weeks into therapy, the patient was still on Nutrimed and Adipex but the fenfluramine was diminished to one-quarter of a pill or 5 mg. The atenolol was discontinued and the patient was encouraged to exercise.

[2] = test system: Patient five; experiment: Protocol and results with patient five (severe obesity); format: in vivo, human; details: for body weight: December 1997, combination Ionamin 30 mg + fenfluramine 20 mg + Zoloft 25 mg q.d. since August 1995, start in excess of 350 lb; for body weight reported by phone: combination Adipex-P 37.5 mg one-half b.i.d. + Celexa 20 mg one-half MWF + Adalat 30 + Aricept + Nutrimed three times daily, from 264¼ lb
From the text: This person has been a patient in this practice for many years. Their medical problems are extremely long-lived and include chronic depression, severe obesity, hypertension, stasis dermatitis, and venous insufficiency of the lower extremities, and seborrhea.
In addition they were taking Lasix, Zaroxolyn and potassium for the control of their severe edema and leg pain. They were also using the CPAP machine.
At their insistence Meridia and Adalat were attempted. […] To augment the weight loss the patient was started on Nutrimed three times daily plus a regular dinner.

[3] = test system: Patient six; experiment: Protocol and results with patient six, Example 10 (fibromyalgia, obesity); format: in vivo, human; details: for weight lost on therapy to date: Ionamin + fenfluramine (until 1996) + Zoloft from December 1995, Aricept from August 1998; for overall condition: over three years from December 1995, combination Ionamin 30 mg + fenfluramine 20 mg + Zoloft 25 mg, fenfluramine discontinued 1996; for body weight: July 1999
From the text: This longstanding patient was first seen in 1988 for fibromyalgia. They are also bothered by chronic low back pain, mitral valve prolapse, sleep disturbance, a family history of coronary disease, and obesity. They are 5′8″ tall, 205½ lb. […] Their problem list contained the additional diagnoses of GERD, carpal tunnel syndrome, suspected mitral valve prolapse, and acne rosacea.
Their medication list included Synthroid, Estratest, Klonopin, Prilosec, Limbitrol, Provera, Premarin and Zostrix cream. […] They frequented health food stores, as well as chiropractors for relief.
Although greatly fearful of potential long-term problems, the patient finally agreed to the institution of a change in their medications and started therapy which was a major change in their medicines December 1995. […] At that time the patient's weight was in the mid 180s. Their other medications were continued.
This was an independent patient-initiated decision.

[4] = test system: Patient four; experiment: Protocol and results with patient four (morbid obesity, cardiomyopathy); format: in vivo, human; details: for cardiac index remeasured / body weight the next month: combination Adipex-P 37.5 one-half + Zoloft 25 mg + Aricept 1.25 mg + fenfluramine 5 mg (+ atenolol 12.5 mg); for body weight the next month: from 235 lb June 1999
Description: This person has been in the practice for several years. Their medical problems surround a cardiomyopathy with a low cardiac output state and heart failure. They also have a history of hypertension, hypothyroidism on therapy, and morbid obesity.
Medication alterations continued over the next several months with increasing Ionamin to 30 mg. Hytrin was added at 2 mg because of prostatic symptoms and in November Pondimin was added.
Adipex-P 37.5 one-half was added to their medications. […]

[5] = test system: Patient two; experiment: Protocol and results with patient two (leg pain, absence of energy); format: in vivo, human; details: for body weight: August 1999, from 143 lb November 1998, Celexa 10 mg + Adipex-P 37.5 one-half (+ atenolol 25 mg), later with Aricept 1.25 mg three times weekly; for weight reduction / leg aches: Celexa + Adipex-P + Aricept (atenolol at first); for weight reduction: November 1998 to August 1999; for leg aches: by August 1999
Description: First evaluated this 5′4″, ectomorphic, single person who was […] at the time.
On Nov. […] They were started on Celexa 10 mg, Adipex-P 37.5 one-half tablet, and atenolol 25 mg all in the morning.
They will keep in touch with me as they will take each instruction for four doses and then go to the next.

[6] = test system: Patient one; experiment: Protocol and results with patient one (cigarette smoking); details: January 1998; Ionamin 15 mg + Prozac 10 mg MWF (+ Estratest, occasional Tranxene)
From the text: In addition, they were started on the moderate dose of the patch.

[7] = test system: Patient three; experiment: Protocol and results with patient three (chronic fatigue); details: for side effect noted by patient: combination reduced to Adipex-P 37.5 one-half, Celexa one-quarter, Aricept one-quarter, fenfluramine one-quarter pill q.a.m.; for patient-reported status: within two days, combination Adipex-P 37.5 mg one-half b.i.d. + Celexa 10 mg q.d. + fenfluramine 10 mg q.d. + Aricept one-half q.d.
From the text: Longstanding patient in my practice who […] developed a viral illness followed by chronic fatigue. This problem persisted, numerous evaluations and consultations were obtained, in excess of 20 physicians were consulted, and the patient was followed for nine months in a major medical center with the diagnosis of chronic Lyme disease. Prior to this their symptoms included a compendium of mild lifelong autonomic dysfunction including chronic bladder and urethral problems which necessitated urological surgery in the distant past. They had not retired from work but had taken long leaves of absence and found it difficult to keep up their normal work schedule as a social worker, something they had done for many years. In the past for their autonomic dysfunction they had been placed on Depakote, Wellbutrin, and amitriptyline and they were on this when they became ill.
Their other medical problems included mitral valve prolapse with click and no murmur but no symptoms, a history of endometriosis, occasional kidney stones, and an ovarian cyst.
Therapy was begun on May 26, 1999. On Jun. […] They were still on 12.5 mg of Elavil or one-half pill and some minocin for acne, Wellbutrin from their psychiatrist, and Zithromax, an antibiotic started by other physicians for the treatment of Lyme disease. This is something that I advised them to discontinue, but they continued because of the concerns of the diagnosis.

[8] = July 1997, combination Ionamin 30 mg + Zoloft 25 + Pondimin
[9] = November, Ionamin (15 then 30 mg) + Zoloft 25 since April 1996, before Pondimin, not decreasing, averaging 237 lb before
[10] = current medication includes Ionamin 15 mg q.a.m. and Aricept one-quarter pill MWF

## O=C1NC(=O)C(c2ccccc2)(c2ccccc2)N1 [Dilantin]
[1]
  outcome of earlier trials for thalamic pain syndrome: no help

## CN[C@H]1CC[C@@H](c2ccc(Cl)c(Cl)c2)c2ccccc21 [Zoloft, sertraline HCl]
[2]
  body weight: 245 lb
[3]
  weight lost on therapy to date: approximately 25 lb
  overall condition: greatly improved
[4]; [8]
  cardiac output by echocardiography: improved
[4]; [9]
  body weight: 230 lb

## CN(C)CCC=C1c2ccccc2CCc2ccccc21 [Elavil]
[1]
  outcome of earlier trials for thalamic pain syndrome: no help

## CNC1=Nc2ccc(Cl)cc2C(c2ccccc2)=[N+]([O-])C1 [Librium]
[1]; 30 mg q.d., discontinued by day three
  side effect: mild sleepiness
[1]
  alcohol withdrawal phenomena: no withdrawal phenomena

## CN(C)CCCC1(c2ccc(F)cc2)OCc2cc(C#N)ccc21 (stereo not shown) [Celexa, citalopram]
[5]
  body weight: 127 lb
  weight reduction: 12.5%
[2]
  body weight reported by phone: ~240 lb

## COc1cc2c(cc1OC)C(=O)C(CC1CCN(Cc3ccccc3)CC1)C2 (stereo not shown) [Aricept, donepezil]
[5]
  weight reduction: 12.5%
  leg aches: resolution of their leg aches
[3]; Aricept 2.5 mg Monday, Wednesday, Friday added August 1998 to ongoing therapy
  patient-reported status after addition: felt much better
[3]
  weight lost on therapy to date: approximately 25 lb
[3]; [10]
  body weight: 161 lb

## NC(=O)N1c2ccccc2C=Cc2ccccc21 [Tegretol]
[1]
  outcome of earlier trials for thalamic pain syndrome: no help

## CC(C)(N)Cc1ccccc1 [Adipex-P, phentermine]
[6]
  body weight: 119 lb
  smoking status: not smoking
[5]
  body weight: 127 lb
  weight reduction: 12.5%
  leg aches: resolution of their leg aches
[1]
  body weight change: marked weight loss
  energy level: marked improvement in energy level
  pain as described by patient: markedly diminished
  alcohol withdrawal phenomena: no withdrawal phenomena
[2]
  body weight: 245 lb
  body weight reported by phone: ~240 lb
[3]
  weight lost on therapy to date: approximately 25 lb
  overall condition: greatly improved
[3]; [10]
  body weight: 161 lb
  chronic fatigue remaining, of its original: ~20%
[4]; Adipex-P 37.5 one-half + Celexa 10 mg twice weekly + Aricept one-quarter pill MWF, in the absence of fenfluramine
  improvement (weight, fatigue): essentially no improvement
[4]; [8]
  body weight: 217 lb
  cardiac output by echocardiography: improved
[4]; [9]
  body weight: 230 lb
[4]
  cardiac index remeasured: even more improved than previously
  body weight the next month: 218
[7]
  side effect noted by patient: some difficulty sleeping
  patient-reported status: life had been transformed back towards its normal status

## hydrocodone/APAPE [hydrocodone/APAPE 7.5/500]
[1]; taken as needed at the time therapy started
  effect on pain: not effective

## NCC1(CC(=O)O)CCCCC1 [Neurontin]
[1]
  outcome of earlier trials for thalamic pain syndrome: no help

## CCNC(C)Cc1cccc(C(F)(F)F)c1 (stereo not shown) [fenfluramine]
[1]
  body weight change: marked weight loss
  energy level: marked improvement in energy level
  pain as described by patient: markedly diminished
  alcohol withdrawal phenomena: no withdrawal phenomena
[2]
  body weight: 245 lb
[3]
  weight lost on therapy to date: approximately 25 lb
  overall condition: greatly improved
[4]; [8]
  body weight: 217 lb
  cardiac output by echocardiography: improved
[4]
  cardiac index remeasured: even more improved than previously
  body weight the next month: 218
[7]
  side effect noted by patient: some difficulty sleeping
  patient-reported status: life had been transformed back towards its normal status

## CNCCC(Oc1ccc(C(F)(F)F)cc1)c1ccccc1 (stereo not shown) [Prozac, fluoxetine HCl]
[6]
  body weight: 119 lb
  smoking status: not smoking
